From US20220324865A1 (Bayer Aktiengesellschaft, priority 2018, published 2022)

The compounds below were run against T1, human EP3 receptor (Homo sapiens, UniProt P43115) (assay: Cellular in vitro assay for determining EP3 receptor activity (human EP3 cell line, sulprostone-stimulated calcium luminescence)). Details: CHO cells expressing human EP3 and mitochondrial Clytin; antagonist mode, sulprostone at EC50; read-out: EP3 CHO mtCLY ANTAG IC50.
T1 construct: expressed in transfected cells; host or cells: CHO K1 (Chinese Hamster Ovary), stably co-transfected with Galpha16 and mitochondrial clytin
T1 sequence (P43115 1-390): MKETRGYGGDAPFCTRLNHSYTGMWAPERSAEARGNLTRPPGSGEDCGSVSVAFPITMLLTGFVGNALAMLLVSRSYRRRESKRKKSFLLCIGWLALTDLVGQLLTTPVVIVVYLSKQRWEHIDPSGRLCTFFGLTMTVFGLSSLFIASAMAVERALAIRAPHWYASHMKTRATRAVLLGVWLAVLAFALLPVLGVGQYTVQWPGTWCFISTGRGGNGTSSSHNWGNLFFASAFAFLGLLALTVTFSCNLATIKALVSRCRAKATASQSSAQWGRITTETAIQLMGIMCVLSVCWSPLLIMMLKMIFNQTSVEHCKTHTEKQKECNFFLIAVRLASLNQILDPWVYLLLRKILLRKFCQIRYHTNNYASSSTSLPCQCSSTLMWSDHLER
Assay type: cell-based
Summary of the method: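 CHO K1 cells stably expressing human EP3 with Gα16 and mitochondrial Clytin, loaded overnight with coelenterazine. Compounds added 10 min before sulprostone at its EC50; antagonism read immediately as reduced calcium-driven luminescence, quadruplicate points.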

IC50 [nM] | Compound
1.35 | Cc1cccc2ncc(-c3cn4nc(C(=O)NCc5ccc6[nH]c(=O)[nH]c6c5)c(C(C)C)c4c(=O)[nH]3)cc12 [Example 4-80, 6-(5-Methylquinolin-3-yl)-4-oxo-N-[(2-oxo-2,3-dihydro-1H-benzimidazol-5-yl)methyl]-3-(propan-2-yl)-4,5-dihydropyrazolo[1,5-a]pyrazine-2-carboxamide]
9.4 | Cc1ccc(-c2cn3nc(C(=O)N[C@@H](c4ccccc4)C(C)(C)O)cc3c(=O)[nH]2)cc1F [6-640]
2.8 | Cc1ccc(-c2cn3nc(C(=O)N[C@@H](c4ccc(F)cc4)C(C)(C)O)c(C4CC4)c3c(=O)[nH]2)c(F)c1F [6-596]
0.99 | Cc1cc(-c2cn3nc(C(=O)NC4(c5ccc(F)cc5)CN(CC(F)(F)F)C4)c(C4CC4)c3c(=O)[nH]2)ccc1Cl [6-344]
7.25 | Cc1cnn(CC(C)NC(=O)c2cc3c(=O)[nH]c(-c4ccc5ccccc5c4)cn3n2)c1 (centres unmarked) [Example 2-29, N-[1-(4-Methyl-1H-pyrazol-1-yl)propan-2-yl]-6-(2-naphthyl)-4-oxo-4,5-dihydropyrazolo[1,5-a]pyrazine-2-carboxamide]
2.9 | Cc1ccc(-c2cn3nc(C(=O)N[C@@H](c4ccc(F)cc4)C(C)(C)O)c(C(F)(F)F)c3c(=O)[nH]2)cc1F [Example 1-147, 6-(3-Fluoro-4-methylphenyl)-N-[(15)-1-(4-fluorophenyl)-2-hydroxy-2-methylpropyl]-4-oxo-3-(trifluoromethyl)-4,5-dihydropyrazolo[1,5-a]pyrazine-2-carboxamide]
3.05 | Cc1ccc(-c2cn3nc(C(=O)NC4(c5ccc(F)cc5)CN(CC(F)(F)F)C4)c(C(F)(F)F)c3c(=O)[nH]2)cc1Cl [6-201]
6.25 | Cc1ccc(-c2cn3nc(C(=O)NC4CC4C(C)C)c(C(F)(F)F)c3c(=O)[nH]2)cc1F (single isomer, unassigned) [6-145]
2.8 | Cc1ccc(-c2cn3nc(C(=O)NC4(c5ccc(F)cc5)CN(C)C4)c(C4CC4)c3c(=O)[nH]2)cc1Cl [6-262]
0.91 | Cc1cc(-c2cn3nc(C(=O)NCCC(O)C(F)(F)F)c(C4CC4)c3c(=O)[nH]2)ccc1Cl (single isomer, unassigned) [6-310]
1.35 | Cc1cc(-c2cn3nc(C(=O)NCC(C)(N)C(F)(F)F)c(C4CC4)c3c(=O)[nH]2)ccc1Cl (single isomer, unassigned) [6-320]
7.6 | COc1ccc2c(c1)OC(C)(C)CC2NC(=O)c1nn2cc(-c3cnc4cccc(C)c4c3)[nH]c(=O)c2c1C(C)C (centres unmarked) [Example 4-79, 3-Isopropyl-N-(7-methoxy-2,2-dimethyl-3,4-dihydro-2-chromen-4-yl)-6-(5-methylquinolin-3-yl)-4-oxo-4,5-dihydropyrazolo[1,5-a]pyrazine-2-carboxamide]
3.35 | Cc1ccc(-c2cn3nc(C(=O)NCC(C)(C)O)c(C4CC4)c3c(=O)[nH]2)cc1Cl [6-285]
2.75 | Cc1ccc([C@@H](C)NC(=O)c2nn3cc(-c4cnc5cccc(C)c5c4)[nH]c(=O)c3c2C(C)C)cc1 [Example 4-55, N-[(1R)-1-(4-Methylphenyl)ethyl]-6-(5-methylquinolin-3-yl)-4-oxo-3-(propan-2-yl)-4,5-dihydropyrazolo[1,5-a]pyrazine-2-carboxamide]
1.55 | Cc1cc(-c2cn3nc(C(=O)NC4(c5ccc(F)cc5)CN(C5CC5)C4)c(C4CC4)c3c(=O)[nH]2)ccc1Cl [6-345]
2.15 | COc1ccc(C(CCO)NC(=O)c2cc3c(=O)[nH]c(-c4ccc(C)c(C)c4)cn3n2)cc1 (racemic) [Example 1-11, rac-6-(3,4-Dimethylphenyl)-N-[3-hydroxy-1-(4-methoxyphenyl)propyl]-4-oxo-5H-pyrazolo[1,5-a]-pyrazine-2-carboxamide]
1.8 | COc1cc(-c2cn3nc(C(=O)N[C@@H](c4ccc(F)cc4)C(C)(C)O)c(C4CC4)c3c(=O)[nH]2)ccc1Cl [6-484]
4.85 | Cc1c(C(=O)NC2(c3ccc(F)cc3)CCN(CC(F)(F)F)CC2)nn2cc(-c3ccc4ccccc4c3)[nH]c(=O)c12 [6-5]
8.4 | Cc1ccc(-c2cn3nc(C(=O)NCCC(F)(F)F)c(C(F)(F)F)c3c(=O)[nH]2)cc1F [6-148]
3.65 | Cc1ccc(-c2cn3nc(C(=O)N[C@@H](c4ccccc4)C(C)(C)O)cc3c(=O)[nH]2)cc1C [Example 1-54, 6-(3,4-Dimethylphenyl)-N-[(1S)-2-hydroxy-2-methyl-1-phenylpropyl]-4-oxo-4,5-dihydropyrazolo-[1,5-a]pyrazine-2-carboxamide]
0.79 | O=C(N[C@H](CCO)c1ccc(F)cc1)c1nn2cc(-c3ccc(Cl)cc3)[nH]c(=O)c2c1C1CC1 [6-674]
3.05 | O=C(N[C@H](CCO)c1ccc(F)cc1)c1cc2c(=O)[nH]c(-c3ccc4ccccc4n3)cn2n1 [6-12]

IC50 [nM] | Compound
10.1 | Cc1cc(-c2cn3nc(C(=O)NCC(N)C(F)(F)F)c(C4CC4)c3c(=O)[nH]2)ccc1C(F)(F)F (single isomer, unassigned) [6-131]
7.5 | COc1ccc(C(CCO)NC(=O)c2cc3c(=O)[nH]c(-c4ccc(C)c(C(F)(F)F)c4)cn3n2)cc1 (centres unmarked) [6-32]
0.69 | Cc1ccc(-c2cn3nc(C(=O)NCC(O)(C(F)(F)F)C(F)(F)F)c(C4CC4)c3c(=O)[nH]2)cc1F [6-403]
4.57 | C[C@H](NC(=O)c1cc2c(=O)[nH]c(-c3ccc4ccccc4c3)cn2n1)c1ccc(F)cc1 [6-79]
1.45 | C[C@H](NC(=O)c1nn2cc(-c3ccc(Cl)c(Cl)c3)[nH]c(=O)c2c1C1CCC1)C1CC1 [6-569]
8.55 | Cn1cnc2cc(-c3cn4nc(C(=O)N[C@@H](c5ccc(F)cc5)C(C)(C)O)c(C(F)(F)F)c4c(=O)[nH]3)ccc21 [6-659]
13 | O=C(NC1CCN(C2CC2)C1)c1nn2cc(-c3ccc4ccccc4c3)[nH]c(=O)c2c1C(F)(F)F (racemic) [6-499]
2.45 | Cc1ccc(-c2cn3nc(C(=O)NC(CO)C(F)(F)F)c(C4CC4)c3c(=O)[nH]2)cc1C(F)(F)F (racemic) [6-248]
7 | CC(CN1CCOCC1)NC(=O)c1nn2cc(-c3ccc4ccccc4c3)[nH]c(=O)c2c1C(F)(F)F (single isomer, unassigned) [6-524]
1.67 | Cc1ccc(-c2cn3nc(C(=O)NC(CCn4cncn4)c4ccccc4)cc3c(=O)[nH]2)cc1C (racemic) [Example 1-12, rac-6-(3,4-Dimethylphenyl)-4-oxo-N-[1-phenyl-3-(1,2,4-triazol-1-yl)propyl]-5H-pyrazolo[1,5-a]-pyrazine-2-carboxamide]
1.06 | O=C(N[C@H]1c2ccccc2C[C@@H]1O)c1nn2cc(-c3ccc4ccccc4c3)[nH]c(=O)c2c1C(F)(F)F [Example 1-78, N-[(1S,2S)-2-Hydroxy-2,3-dihydro-1H-inden-1-yl]-6-(naphthalen-2-yl)-4-oxo-3-(trifluoromethyl)-4,5-dihydropyrazolo[1,5-a]pyrazine-2-carboxamide]
4.45 | Cc1c(C(=O)NC(C)c2ccc3c(c2)OCCO3)nn2c(C)c(-c3ccc4ccccc4c3)[nH]c(=O)c12 (centres unmarked) [Example 3-31, N-[1-(2,3-Dihydro-1,4-benzodioxin-6-yl)ethyl]-3,7-dimethyl-6-(2-naphthyl)-4-oxo-5H-pyrazolo[1,5-a]pyrazine-2-carboxamide]
1.35 | Cc1cc(-c2cn3nc(C(=O)N[C@@H](C)C4CC4)c(C(F)(F)F)c3c(=O)[nH]2)ccc1Cl [6-214]
3.6 | Cc1ccc(-c2cn3nc(C(=O)N[C@H](CN4CC[C@@H](F)C4)c4ccccc4)cc3c(=O)[nH]2)cc1F [6-637]
1.95 | Cc1nn(C)cc1CNC(=O)c1nn2c(C)c(-c3ccc4ccccc4c3)[nH]c(=O)c2c1C [Example 3-9, N-[(1,3-Dimethyl-1H-pyrazol-4-yl)methyl]-3,7-dimethyl-6-(naphthalen-2-yl)-4-oxo-4,5-dihydropyrazolo[1,5-a]pyrazine-2-carboxamide]
1 | Cc1ccc(-c2cn3nc(C(=O)N[C@@H](C)C4CC4)c(C4CC4)c3c(=O)[nH]2)cc1C [6-439]
0.61 | COC[C@@H](NC(=O)c1nn2cc(-c3ccc4ccccc4c3)[nH]c(=O)c2c1C(F)(F)F)c1ccccc1 [6-495]
1.18 | Cc1cc(-c2cn3nc(C(=O)NC(c4ccc(F)cc4)C4(O)CC4)c(C(F)(F)F)c3c(=O)[nH]2)ccc1Cl (single isomer, unassigned) [6-211]
6.05 | Cc1cccc2ncc(-c3cn4nc(C(=O)NC5CCc6ccccc65)c(C(C)C)c4c(=O)[nH]3)cc12 (centres unmarked) [Example 4-72, N-(2,3-Dihydro-1H-inden-1-yl)-3-isopropyl-6-(5-methylquinolin-3-yl)-4-oxo-4,5-dihydropyrazolo[1,5-a]pyrazine-2-carboxamide]
9.55 | Cc1cc(CNC(=O)c2nn3c(C)c(-c4ccc5ccccc5c4)[nH]c(=O)c3c2C)on1 [Example 3-15, 3,7-Dimethyl-N-[(3-methyl-1,2-oxazol-5-yl)methyl]-6-(naphthalen-2-yl)-4-oxo-4,5-dihydropyrazolo[1,5-a]pyrazine-2-carboxamide]
2.55 | Cc1ccc(-c2cn3nc(C(=O)NC(C)C4CCC4)c(C(F)(F)F)c3c(=O)[nH]2)cc1Cl (single isomer, unassigned) [6-194]
4.35 | Cc1ccc(-c2cn3nc(C(=O)N[C@@H](c4ccccc4)C(C)(C)O)c(C(F)(F)F)c3c(=O)[nH]2)cc1F [6-143]
